Measurements from patent publication US7858618B2, “Compounds” (Boehringer Ingelheim International GmbH, priority 2006, dated 2010).

Assays:
[1] = target: T1, hBK1 receptor (Homo sapiens, UniProt P46663); assay: hBK1 receptor binding (displacement of [3H]-kallidin (DesArg10, Leu9) from membranes of CHO cells expressing the hBK1 receptor); conditions: CHO cell membranes expressing hBK1 receptor; 0.5 to 1.0 nM [3H]-kallidin (DesArg10, Leu9); 60 minutes at room temperature
T1 construct: expressed in transfected cells; host or cells: CHO cells
T1 sequence (P46663 1-353): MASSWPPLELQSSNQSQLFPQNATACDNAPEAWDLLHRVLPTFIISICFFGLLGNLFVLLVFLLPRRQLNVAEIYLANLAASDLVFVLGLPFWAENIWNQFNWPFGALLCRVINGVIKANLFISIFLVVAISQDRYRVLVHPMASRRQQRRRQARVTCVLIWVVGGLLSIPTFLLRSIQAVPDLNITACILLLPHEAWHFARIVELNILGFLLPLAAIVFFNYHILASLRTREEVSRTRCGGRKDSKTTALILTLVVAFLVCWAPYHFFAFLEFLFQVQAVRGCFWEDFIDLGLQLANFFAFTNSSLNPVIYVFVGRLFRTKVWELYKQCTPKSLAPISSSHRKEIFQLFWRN
Description: Description of the Method of hBK1 Receptor Binding
CHO cells expressing the hBK1 receptor are cultivated in Dulbecco's modified medium. The medium from confluent cultures is removed and the cells are washed with PBS buffer, scraped off and isolated by centrifugation. The cells are then homogenized in suspension and the homogenate is centrifuged and resuspended. The protein content is determined and the membrane preparation obtained in this manner is then frozen at −80° C.
After thawing, 200 μl of the homogenate (50 to 100 μg of proteins/assay) are incubated at room temperature with 0.5 to 1.0 nM of kallidin (DesArg10, Leu9), [3,4-prolyl-3,43H(N)] and increasing concentrations of the test substance in a total volume of 250 μl for 60 minutes. The incubation is terminated by rapid filtration through GF/B glass fibre filters which had been pretreated with polyethyleneimine (0.3%). The protein-bound radioactivity is measured in a TopCount NXT. Non-specific binding is defined as radioactivity bound in the presence of 1.0 μM of kallidin (DesArg10, Leu9), [3,4-prolyl-3,43H(N)]. The concentration/binding curve is analysed using a computer-assisted nonlinear curve fitting. The Ki which corresponds to the test substance is determined using the data obtained in this manner. […]

## COc1cc(C)c(S(=O)(=O)N(C)CCOCC(=O)N(C)[C@H]2CCN(C3CCN(C)CC3)C2)c(C)c1 [(393)]
[1]
  Ki: 1.6 nM

## COc1cc(C)c(S(=O)(=O)N(C)CCOCC(=O)N(C)C2CCN(C3CCN(C)CC3)CC2)c(C)c1 [(397)]
[1]
  Ki: 7.5 nM

## COc1cc(C)c(S(=O)(=O)N(C)CCOCC(=O)N(C)[C@@H]2CCN(C3CCN(C(C)C)CC3)C2)c(C)c1 [(398)]
[1]
  Ki: 0.74 nM

## COc1cc(C)c(S(=O)(=O)N(C)CCOCC(=O)N(C)[C@H]2CCN(C3CCN(C(C)C)CC3)C2)c(C)c1 [(399)]
[1]
  Ki: 3 nM

## CCN1CCC(N2CC[C@@H](N(C)C(=O)COCCN(C)S(=O)(=O)c3c(C)cc(OC)cc3C)C2)CC1 [(400)]
[1]
  Ki: 0.79 nM

## CCN1CCC(N2CC[C@H](N(C)C(=O)COCCN(C)S(=O)(=O)c3c(C)cc(OC)cc3C)C2)CC1 [(401)]
[1]
  Ki: 2.7 nM

## COc1cc(C)c(S(=O)(=O)N(C)CCOCC(=O)N(C)Cc2ccc(OCC3CCCN3C)cc2)c(C)c1 (centres unmarked) [(402)]
[1]
  Ki: 9.3 nM

## COc1cc(C)c(S(=O)(=O)N(C)CCOCC(=O)N(C)Cc2ccc3[nH]c(CN(C)C)nc3c2)c(C)c1 [(404)]
[1]
  Ki: 2.8 nM

## COc1cc(C)c(S(=O)(=O)N(C)CCOCC(=O)N(C)C2CCc3cc(OCCN4CCCC4)ccc32)c(C)c1 (centres unmarked) [(418)]
[1]
  Ki: 1.2 nM

## COc1cc(C)c(S(=O)(=O)N(C)CCOCC(=O)N(C)C2CCC(N3CCC(CN4CCCC4)CC3)CC2)c(C)c1 (centres unmarked) [(419)]
[1]
  Ki: 0.65 nM

## COc1cc(C)c(S(=O)(=O)N(C)CCOCC(=O)N(C)CC2CCC(N3CCN(C)CC3)CC2)c(C)c1 (centres unmarked) [(420)]
[1]
  Ki: 9.1 nM

## COc1cc(C)c(S(=O)(=O)N(C)CCOCC(=O)N(C)[C@@H]2CCC[C@H](N3CCN(C)CC3)C2)c(C)c1 [(421)]
[1]
  Ki: 8.7 nM

## COc1cc(C)c(S(=O)(=O)N(C)CCOCC(=O)N(C)C[C@]2(C)CC[C@H](CN3CCCC3)C2(C)C)c(C)c1 [(423)]
[1]
  Ki: 3.4 nM

## COc1cc(C)c(S(=O)(=O)N(C)CCOCC(=O)N(C)C2CCc3cc(CN4CCCC4)ccc32)c(C)c1 (centres unmarked) [(424)]
[1]
  Ki: 1.4 nM

## COc1cc(C)c(S(=O)(=O)N(C)CCOCC(=O)N(C)C[C@@H]2CC[C@H](CN3CCCC3)C2)c(C)c1 [(425)]
[1]
  Ki: 8.3 nM

## COc1cc(C)c(S(=O)(=O)N(C)CCOCC(=O)N(C)C[C@H]2CC[C@@H](N(C)CCN(C)C)CC2)c(C)c1 [(428)]
[1]
  Ki: 6.3 nM

## COc1cc(C)c(S(=O)(=O)N(C)CCOCC(=O)N(C)[C@H]2CC[C@@H](CCN3CCCC3)CC2)c(C)c1 [(435)]
[1]
  Ki: 1.5 nM

## COc1cc(C)c(S(=O)(=O)N(C)CCOCC(=O)N(C)[C@H]2CC[C@H](CCN3CCCC3)CC2)c(C)c1 [(439)]
[1]
  Ki: 7.5 nM

## COc1cc(C)c(S(=O)(=O)N(C)CCOCC(=O)N(C)[C@H]2CC[C@@H](CN3CC[C@@H](N(C)C)C3)CC2)c(C)c1 [(441)]
[1]
  Ki: 4.6 nM

## COc1cc(C)c(S(=O)(=O)N(C)CCOCC(=O)N(C)[C@H]2CC[C@@H](CN3CCC(N(C)C)C3)CC2)c(C)c1 (some centres unmarked) [(444)]
[1]
  Ki: 6.9 nM

## COc1cc(C)c(S(=O)(=O)N(C)CCOCC(=O)N(C)Cc2ccc(N3CCC(N4CCCC4)C3)cc2Cl)c(C)c1 (centres unmarked) [(445)]
[1]
  Ki: 5.6 nM

## COc1cc(C)c(S(=O)(=O)N(C)CCOCC(=O)N(C)[C@@H]2CCN([C@H]3CC[C@@H](N4CCCC4)CC3)C2)c(C)c1 [(448)]
[1]
  Ki: 0.82 nM

## COc1cc(C)c(S(=O)(=O)N(C)CCOCC(=O)N(C)C2CCCN(C3CCN(C)CC3)CC2)c(C)c1 (centres unmarked) [(451)]
[1]
  Ki: 9 nM

## COc1cc(C)c(S(=O)(=O)N(C)CCOCC(=O)N(C)[C@@H]2CCN(C3CCN(CC4CC4)CC3)C2)c(C)c1 [(458)]
[1]
  Ki: 4.3 nM

## COc1cc(C)c(S(=O)(=O)N(C)CCOCC(=O)N(C)[C@H]2CC[C@@H](CCN(C)CC3CC3)CC2)c(C)c1 [(463)]
[1]
  Ki: 2 nM

## COc1cc(C)c(S(=O)(=O)N(C)CCOCC(=O)N(C)[C@H]2CC[C@@H](CCN3CCN(C)CC3)CC2)c(C)c1 [(464)]
[1]
  Ki: 1.5 nM

## COc1cc(C)c(S(=O)(=O)N(C)CCOCC(=O)N(C)[C@H]2CCN(C3CCN(CC4CC4)CC3)C2)c(C)c1 [(465)]
[1]
  Ki: 3.8 nM

## COc1cc(C)c(S(=O)(=O)N(C)CCOCC(=O)N(C)C2CCC(N3CCC(N4CCCC4)CC3)CC2)c(C)c1 (centres unmarked) [(468)]
[1]
  Ki: 1 nM

## COc1cc(Cl)cc(Cl)c1S(=O)(=O)N(C)CCOCC(=O)N(C)[C@@H]1CCN(C2CCN(C)CC2)C1 [(469)]
[1]
  Ki: 8 nM

## COc1cc(C)c(S(=O)(=O)N(C)CCOCC(=O)N(C)[C@H]2CC[C@@H](CN3CC[C@H](N4CCCC4)C3)CC2)c(C)c1 [(471)]
[1]
  Ki: 4.1 nM

## COc1cc(C)c(S(=O)(=O)N(C)CCOCC(=O)N(C)[C@H]2CC[C@@H](CN3CC[C@@H](N4CCCC4)C3)CC2)c(C)c1 [(472)]
[1]
  Ki: 0.68 nM

## COc1cc(C)c(S(=O)(=O)N(C)CCOCC(=O)N(C)[C@H]2CC[C@@H](CN3CCC[C@H](N(C)C)C3)CC2)c(C)c1 [(473)]
[1]
  Ki: 1.8 nM

## COc1cc(C)c(S(=O)(=O)N(C)CCOCC(=O)N(C)C[C@H]2CC[C@@](C)(CN3CCCC3)C2(C)C)c(C)c1 [(474)]
[1]
  Ki: 1.4 nM

## COc1cc(C)c(S(=O)(=O)N(C)CCOCC(=O)N(C)CC2CCN(C(=O)CCN3CCCC3)CC2)c(C)c1 [(475)]
[1]
  Ki: 2.4 nM

## COc1cc(C)c(S(=O)(=O)N(C)CCOCC(=O)N(C)[C@H]2CC[C@@H](CN3CCC[C@@H](N(C)C)C3)CC2)c(C)c1 [(476)]
[1]
  Ki: 2.35 nM

## COc1cc(C)c(S(=O)(=O)N(C)CCOCC(=O)N(C)C2CCC(C3CCN(C)CC3)CC2)c(C)c1 (centres unmarked) [(477)]
[1]
  Ki: 5.8 nM

## COc1cc(C)c(S(=O)(=O)N(C)CCOCC(=O)N(C)[C@@H]2CCN(C3CCN(C4CCCC4)CC3)C2)c(C)c1 [(478)]
[1]
  Ki: 1 nM

## COc1cc(C)c(S(=O)(=O)N(C)CC(=O)NCC(=O)N(C)Cc2ccc(NCCN(C)C)cc2)c(C)c1 [(492)]
[1]
  Ki: 3.2 nM

## COc1cc(C)c(S(=O)(=O)N(C)CCOCC(=O)N(C)C[C@@H]2CCN(CCCN3CCCC3)C2)c(C)c1 [(576)]
[1]
  Ki: 0.85 nM

## COc1cc(C)c(S(=O)(=O)N(C)CCOCC(=O)N(C)[C@@H]2CCN(C3CCN(C4CCC4)CC3)C2)c(C)c1 [(577)]
[1]
  Ki: 0.34 nM

## COc1cc(C)c(S(=O)(=O)N(C)CCOCC(=O)N(C)[C@@H]2CCN(C(=O)CCN3CCCC3)C2)c(C)c1 [(580)]
[1]
  Ki: 6.2 nM

## COc1cc(C)c(S(=O)(=O)N(C)CCOCC(=O)N(C)C[C@]2(C)CC[C@H](CN3CCC3)C2(C)C)c(C)c1 [(582)]
[1]
  Ki: 9.3 nM

## COc1cc(C)c(S(=O)(=O)N(C)CCOCC(=O)N(C)C[C@H]2CC[C@@H](N3CCN(C)CC3)CC2)c(C)c1 [(584)]
[1]
  Ki: 9 nM

## COc1cc(C)c(S(=O)(=O)N(C)CCOCC(=O)N(C)CC2CCC(N3CCC(N(C)C)CC3)CC2)c(C)c1 (centres unmarked) [(586)]
[1]
  Ki: 5.1 nM

## COc1cc(C)c(S(=O)(=O)N(C)CCOCC(=O)N(C)CC2CCC(N3CCCC(N(C)C)C3)CC2)c(C)c1 (centres unmarked) [(587)]
[1]
  Ki: 9.5 nM

## COc1cc(C)c(S(=O)(=O)N(C)CCOCC(=O)N(C)C2CCC(N3CCC(C4CCN(C)CC4)CC3)CC2)c(C)c1 (centres unmarked) [(588)]
[1]
  Ki: 1.5 nM

## COc1cc(C)c(S(=O)(=O)N(C)CCOCC(=O)N(C)[C@H]2CC[C@@H](N3CCN(C)CC3)CC2)c(C)c1 [(589)]
[1]
  Ki: 5.1 nM

## COc1cc(C)c(S(=O)(=O)N(C)CCOCC(=O)N(C)C[C@H]2CC[C@H](NCCN3CCCC3)CC2)c(C)c1 [(591)]
[1]
  Ki: 1.9 nM

## COc1cc(C)c(S(=O)(=O)N(C)CCOCC(=O)N(C)[C@H]2CC[C@@H](CCN3CCC3)CC2)c(C)c1 [(592)]
[1]
  Ki: 2.8 nM

## COc1cc(C)c(S(=O)(=O)N(C)CCOCC(=O)N(C)[C@H]2CC[C@@H](OCCN(C)C)CC2)c(C)c1 [(613)]
[1]
  Ki: 9.7 nM

## COc1cc(C)c(S(=O)(=O)N(C)CCOCC(=O)N(C)[C@H]2CC[C@@H](OCCN3CCCC3)CC2)c(C)c1 [(614)]
[1]
  Ki: 2 nM

## COc1cc(C)c(S(=O)(=O)N(C)CCOCC(=O)N(C)C(C)[C@H]2CC[C@H](CN3CCCC3)CC2)c(C)c1 (some centres unmarked) [(616)]
[1]
  Ki: 3.7 nM

## COc1cc(C)c(S(=O)(=O)N(C)CCOCC(=O)N(C)[C@H]2CC[C@@H](CCN3CCOCC3)CC2)c(C)c1 [(619)]
[1]
  Ki: 1.2 nM

## COc1cc(C)c(S(=O)(=O)N(C)CCOCC(=O)N(C)[C@H]2CC[C@@H](CCN(C)C)CC2)c(C)c1 [(620)]
[1]
  Ki: 5.9 nM

## COc1cc(C)c(S(=O)(=O)N(C)CCOCC(=O)N(C)C[C@H]2CC[C@@](C)(CN3CCC3)C2(C)C)c(C)c1 [(621)]
[1]
  Ki: 5.8 nM

## COc1cc(C)c(S(=O)(=O)N(C)CCOCC(=O)N(C)[C@@H]2CCN(C(=O)CCN3CCCCC3)C2)c(C)c1 [(623)]
[1]
  Ki: 3.4 nM

## CCN(CC)CCC(=O)N1CC[C@@H](N(C)C(=O)COCCN(C)S(=O)(=O)c2c(C)cc(OC)cc2C)C1 [(624)]
[1]
  Ki: 8 nM

## COc1cc(C)c(S(=O)(=O)N(C)CCOCC(=O)N(C)C2CCN(C(=O)CCN3CCCC3)CC2)c(C)c1 [(630)]
[1]
  Ki: 5.5 nM

## CCN(CC)CC1CCN(c2ccc(NC(=O)CCN(C)S(=O)(=O)c3c(C)cc(OC)cc3C)nn2)CC1 [Example 87]
other
  melting point: 173 °C
